Test results reported in PubChem BioAssay (NCI).
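Exposure lasted 48 hours, with cells grown in 96-well plates and compounds tested at five concentrations. TGI: concentration producing complete growth inhibition.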

Key:
Test in all cases: NCI anticancer screen, dose series, 48 h
[1] = test system: M14 melanoma
[2] = test system: NCI/ADR-RES ovarian
[3] = test system: SK-OV-3 ovarian
[4] = test system: MOLT-4 leukemia
[5] = test system: SK-MEL-28 melanoma
[6] = test system: HCT-116 colon
[7] = test system: OVCAR-8 ovarian
[8] = test system: EKVX NSCLC
[9] = test system: NCI-H522 lung
[10] = test system: MDA-MB-435
[11] = test system: BT-549 breast
[12] = test system: HOP-92 NSCLC
[13] = test system: MALME-3M melanoma
[14] = test system: UACC-62 melanoma
[15] = test system: RXF 393 renal
[16] = test system: NCI-H226 lung
[17] = test system: HOP-62 NSCLC
[18] = test system: SW-620 colon
[19] = test system: K-562 leukemia
[20] = test system: T-47D breast
[21] = test system: CAKI-1 renal
[22] = test system: MDA-MB-231 breast
[23] = test system: OVCAR-4 ovarian
[24] = test system: OVCAR-5 ovarian
[25] = test system: HCC-2998 colon
[26] = test system: SF-539 CNS
[27] = test system: TK-10 renal
[28] = test system: COLO 205 colon
[29] = test system: SK-MEL-2 melanoma
[30] = test system: A498 renal
[31] = test system: SNB-19 CNS
[32] = test system: LOX IMVI melanoma
[33] = test system: NCI-H460 lung
[34] = test system: SF-268 CNS
[35] = test system: IGROV1 ovarian
[36] = test system: UACC-257 melanoma
[37] = test system: SR leukemia
[38] = test system: MCF7 breast
[39] = test system: U251 CNS
[40] = test system: DU-145 prostate
[41] = test system: HS 578T breast
[42] = test system: A549 NSCLC
[43] = test system: SN12C renal
[44] = test system: HT29 colon
[45] = test system: HCT-15 colon
[46] = test system: UO-31 renal
[47] = test system: SF-295 CNS
[48] = test system: OVCAR-3 ovarian
[49] = test system: NCI-H23 lung
[50] = test system: SK-MEL-5 melanoma
[51] = test system: ACHN renal
[52] = test system: CCRF-CEM leukemia
[53] = test system: RPMI-8226 leukemia
[54] = test system: PC-3 prostate
[55] = test system: KM12 colon
[56] = test system: MDA-N
[57] = test system: 786-0 renal
[58] = test system: SNB-75 CNS
[59] = test system: HL-60(TB) leukemia

O=c1[nH]cnc2c1cnn2Cc1cn(CCCCO)nn1
TGI [1]: > 100 µM
TGI [2]: > 100 µM
TGI [3]: > 100 µM
TGI [4]: > 100000 nM
TGI [5]: > 100 µM
TGI [6]: > 100 µM
TGI [7]: > 100 µM
TGI [8]: > 100 µM
TGI [9]: > 100000 nM
TGI [10]: > 100 µM
TGI [11]: > 100 µM
TGI [12]: > 100 µM
TGI [13]: > 100 µM
TGI [14]: > 100 µM
TGI [15]: > 100 µM
TGI [16]: > 100 µM
TGI [17]: > 100 µM
TGI [18]: > 100 µM
TGI [19]: > 100 µM
TGI [20]: > 100 µM
TGI [21]: > 100 µM
TGI [22]: > 100 µM
TGI [23]: > 100 µM
TGI [24]: > 100 µM
TGI [25]: > 100 µM
TGI [26]: > 100 µM
TGI [27]: > 100 µM
TGI [28]: > 100 µM
TGI [29]: > 100 µM
TGI [30]: > 100 µM
TGI [31]: > 100 µM
TGI [32]: > 100 µM
TGI [33]: > 100 µM
TGI [34]: > 100 µM
TGI [35]: > 100 µM
TGI [36]: > 100 µM
TGI [37]: > 100 µM
TGI [38]: > 100 µM
TGI [39]: > 100 µM
TGI [40]: > 100 µM
TGI [41]: > 100 µM
TGI [42]: > 100 µM
TGI [43]: > 100 µM
TGI [44]: > 100 µM
TGI [45]: > 100 µM
TGI [46]: > 100 µM
TGI [47]: > 100 µM
TGI [48]: > 100 µM
TGI [49]: > 100 µM
TGI [50]: > 100 µM
TGI [51]: > 100 µM
TGI [52]: > 100000 nM
TGI [53]: > 100 µM
TGI [54]: > 100 µM
TGI [55]: > 100 µM
TGI [56]: > 100 µM
TGI [57]: > 100 µM

COC(=O)c1ccc(/C=C/c2cc(O)ccc2O)cc1
TGI [1]: 43 µM
TGI [2]: 7.72 µM
TGI [4]: 927 nM
TGI [5]: 43.4 µM
TGI [6]: 18.9 µM
TGI [7]: 18.4 µM
TGI [8]: 9.66 µM
TGI [9]: 356 nM
TGI [10]: 13.5 µM
TGI [11]: 3.49 µM
TGI [12]: 7.69 µM
TGI [13]: 5.64 µM
TGI [14]: 17.4 µM
TGI [15]: 6.59 µM
TGI [16]: > 27 µM
TGI [17]: > 69.3 µM
TGI [18]: 18.6 µM
TGI [19]: 4.38 µM
TGI [20]: 5.32 µM
TGI [21]: 7.5 µM
TGI [22]: 24 µM
TGI [23]: 15.9 µM
TGI [24]: 70.3 µM
TGI [25]: > 59.6 µM
TGI [26]: 6.65 µM
TGI [27]: 45.3 µM
TGI [28]: 22.8 µM
TGI [29]: > 31.6 µM
TGI [30]: 33 µM
TGI [31]: > 100 µM
TGI [32]: 9.39 µM
TGI [33]: 25.9 µM
TGI [34]: 8.41 µM
TGI [35]: 9.42 µM
TGI [36]: 22.5 µM
TGI [37]: 3.69 µM
TGI [38]: 21.8 µM
TGI [39]: 8.44 µM
TGI [40]: > 100 µM
TGI [41]: > 100 µM
TGI [42]: > 100 µM
TGI [43]: 18.8 µM
TGI [44]: > 100 µM
TGI [45]: 12.2 µM
TGI [46]: 3.67 µM
TGI [47]: > 100 µM
TGI [48]: 6.86 µM
TGI [49]: > 38.5 µM
TGI [50]: > 25.5 µM
TGI [51]: 14.1 µM
TGI [52]: 719 nM
TGI [58]: 68.5 µM
TGI [53]: 4.14 µM
TGI [54]: 22.2 µM
TGI [55]: 28 µM
TGI [56]: > 46.7 µM
TGI [59]: 1060 nM
TGI [57]: 16.9 µM
